Assay results reported in ChEMBL document CHEMBL4725222, “Advances in the Development of Phosphodiesterase-4 Inhibitors” (J Med Chem, 2020).

Legend:
[1] = molecular target: T1, 3',5'-cyclic-AMP phosphodiesterase 4B (Homo sapiens, UniProt Q07343); assay: Inhibition of PDE4B (unknown origin)
[2] = molecular target: T2, 3',5'-cyclic-AMP phosphodiesterase 4D (Homo sapiens, UniProt Q08499); assay: Inhibition of PDE4D (unknown origin)
[3] = molecular target: 3',5'-cyclic-AMP phosphodiesterase 4A (Homo sapiens, UniProt P27815); assay: Inhibition of PDE4A (unknown origin)
[4] = molecular target: T2, 3',5'-cyclic-AMP phosphodiesterase 4D; assay: Inhibition of human PDE4D2 catalytic domain (86 to 413 residues) expressed in Escherichia coli BL21 cells using 3H-cGMP or 3H-cAMP as substrate by liquid scintillation counting method
Phosphodiesterase 4 [5] = molecular target: T3, Phosphodiesterase 4 (Homo sapiens, UniProt P27815+Q08499+Q07343+Q08493); assay: Inhibition of PDE4 (unknown origin); format: protein assay
[6] = molecular target: T1, 3',5'-cyclic-AMP phosphodiesterase 4B; assay: Inhibition of full length human PDE4B2 expressed in baculovirus infected Sf9 cell expression system preincubated for 10 mins followed by cAMP addition and measured after 30 mins by fluorescence method
[7] = molecular target: T2, 3',5'-cyclic-AMP phosphodiesterase 4D; assay: Inhibition of full length human PDE4D2 preincubated for 10 mins followed by cAMP addition and measured after 30 mins by fluorescence method
[8] = molecular target: T1, 3',5'-cyclic-AMP phosphodiesterase 4B; assay: Inhibition of recombinant human PDE4B expressed in Sf9 cells by IMAP phosphodiesterase assay
[9] = molecular target: T1, 3',5'-cyclic-AMP phosphodiesterase 4B; assay: Inhibition of recombinant human PDE4B catalytic domain expressed in baculovirus infected sf9 cells using 3H-cAMP as substrate incubated for 20 mins by scintillation counting method
[10] = molecular target: cGMP-inhibited 3',5'-cyclic phosphodiesterase 3A (Homo sapiens, UniProt Q14432); assay: Inhibition of recombinant human PDE3A catalytic domain expressed in baculovirus infected sf9 cells using 3H-cAMP as substrate incubated for 20 mins by scintillation counting method
[11] = molecular target: T1, 3',5'-cyclic-AMP phosphodiesterase 4B; assay: Inhibition of recombinant human PDE4B2 using cAMP as substrate preincubated for 5 mins followed by substrate addition and measured after 60 mins by luminescence method
[12] = Inhibition of TNFalpha in mouse model of sepsis; format: functional
[13] = Inhibition of human platelet derived PDE3
Phosphodiesterase 4 [14] = molecular target: T3, Phosphodiesterase 4; assay: Inhibition of human neutrophil derived PDE4; format: protein assay
Phosphodiesterase 4 [15] = molecular target: T3, Phosphodiesterase 4; assay: Inhibition of human U937 cell derived PDE4 preincubated for 15 mins followed by […] and cAMP addition and measured after 20 mins by liquid scintillation counter; format: protein assay
[16] = molecular target: T1, 3',5'-cyclic-AMP phosphodiesterase 4B; assay: Inhibition of recombinant human PDE4B2 using cAMP as substrate preincubated for 15 mins followed by substrate addition and measured after 60 mins by Alphascreen assay
Phosphodiesterase 4 [17] = molecular target: T3, Phosphodiesterase 4; assay: Inhibition of cytosolic PDE4 in human PMNL using [3H]cAMP as substrate by liquid scintillation counting method
[18] = Antiinflammatory activity in human nasal polyp cells assessed as reduction in TNFalpha release incubated for 30 mins followed by anti-IgE stimulation and measured after 18 hrs by ELISA; format: functional, cell-based; details: Nasal polyp cell
[19] = molecular target: T1, 3',5'-cyclic-AMP phosphodiesterase 4B; assay: Inhibition of recombinant human PDE4B2 preincubated for 30 mins followed by [3H]cyclic AMP addition and measured after 20 mins by radiometric assay
[20] = molecular target: T1, 3',5'-cyclic-AMP phosphodiesterase 4B; assay: Inhibition of N-terminal GST tagged full length human PDE4B2 expressed in baculovirus infected Sf9 cell expression system using cAMP as substrate incubated for 60 mins by time-resolved fluorescence competitive immunoassay
[21] = molecular target: 3',5'-cyclic-AMP phosphodiesterase 4C (Homo sapiens, UniProt Q08493); assay: Inhibition of N-terminal GST tagged full length human PDE4C1 expressed in baculovirus infected Sf9 cell expression system using cAMP as substrate incubated for 60 mins by time-resolved fluorescence competitive immunoassay
[22] = molecular target: T1, 3',5'-cyclic-AMP phosphodiesterase 4B; assay: Inhibition of recombinant N-terminal GST-tagged full length human PDE4B1 expressed in baculovirus infected Sf9 cells […] as substrate by HPLC-MS method
Phosphodiesterase 4 [23] = molecular target: T3, Phosphodiesterase 4; assay: Inhibition of PDE4 in human U937 cell lysate using cAMP as substrate by LANCE assay; format: subcellular; details: u-937
[24] = molecular target: Muscarinic acetylcholine receptor M3 (Homo sapiens, UniProt P20309); assay: Displacement of [3H]N -methylscopolamine from human muscarinic M3 receptor expressed in CHO-K1 cells incubated for 90 mins by scintillation counting method; format: cell-based
[25] = molecular target: T2, 3',5'-cyclic-AMP phosphodiesterase 4D; assay: Inhibition of PDE4D3 (unknown origin)
[26] = Inhibition of guinea-pig neutrophil derived PDE4; design: species or system Cavia porcellus
[27] = Inhibition of guinea-pig platelet derived PDE3; design: species or system Cavia porcellus

T2 sequence (Q08499 whole entry): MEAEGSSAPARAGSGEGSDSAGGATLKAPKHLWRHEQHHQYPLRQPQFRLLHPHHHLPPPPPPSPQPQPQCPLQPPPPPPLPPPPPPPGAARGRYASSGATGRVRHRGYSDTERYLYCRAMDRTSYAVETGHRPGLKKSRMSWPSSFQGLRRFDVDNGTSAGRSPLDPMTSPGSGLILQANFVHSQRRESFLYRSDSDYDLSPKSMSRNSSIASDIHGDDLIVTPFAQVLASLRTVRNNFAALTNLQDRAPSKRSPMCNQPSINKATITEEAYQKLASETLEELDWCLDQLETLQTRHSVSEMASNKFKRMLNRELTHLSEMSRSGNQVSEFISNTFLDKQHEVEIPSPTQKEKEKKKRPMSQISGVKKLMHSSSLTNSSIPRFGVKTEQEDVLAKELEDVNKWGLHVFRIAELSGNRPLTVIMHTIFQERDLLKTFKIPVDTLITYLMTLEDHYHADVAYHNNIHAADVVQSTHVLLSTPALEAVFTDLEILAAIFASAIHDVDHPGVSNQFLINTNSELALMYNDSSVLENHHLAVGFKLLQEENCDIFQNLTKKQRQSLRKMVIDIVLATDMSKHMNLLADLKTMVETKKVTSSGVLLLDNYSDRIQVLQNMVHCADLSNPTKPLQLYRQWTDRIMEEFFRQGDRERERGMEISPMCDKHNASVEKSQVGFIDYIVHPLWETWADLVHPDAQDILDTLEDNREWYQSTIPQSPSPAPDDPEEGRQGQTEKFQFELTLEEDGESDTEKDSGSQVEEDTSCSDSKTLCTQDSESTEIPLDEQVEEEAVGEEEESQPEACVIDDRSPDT
T1 sequence (Q07343 whole entry): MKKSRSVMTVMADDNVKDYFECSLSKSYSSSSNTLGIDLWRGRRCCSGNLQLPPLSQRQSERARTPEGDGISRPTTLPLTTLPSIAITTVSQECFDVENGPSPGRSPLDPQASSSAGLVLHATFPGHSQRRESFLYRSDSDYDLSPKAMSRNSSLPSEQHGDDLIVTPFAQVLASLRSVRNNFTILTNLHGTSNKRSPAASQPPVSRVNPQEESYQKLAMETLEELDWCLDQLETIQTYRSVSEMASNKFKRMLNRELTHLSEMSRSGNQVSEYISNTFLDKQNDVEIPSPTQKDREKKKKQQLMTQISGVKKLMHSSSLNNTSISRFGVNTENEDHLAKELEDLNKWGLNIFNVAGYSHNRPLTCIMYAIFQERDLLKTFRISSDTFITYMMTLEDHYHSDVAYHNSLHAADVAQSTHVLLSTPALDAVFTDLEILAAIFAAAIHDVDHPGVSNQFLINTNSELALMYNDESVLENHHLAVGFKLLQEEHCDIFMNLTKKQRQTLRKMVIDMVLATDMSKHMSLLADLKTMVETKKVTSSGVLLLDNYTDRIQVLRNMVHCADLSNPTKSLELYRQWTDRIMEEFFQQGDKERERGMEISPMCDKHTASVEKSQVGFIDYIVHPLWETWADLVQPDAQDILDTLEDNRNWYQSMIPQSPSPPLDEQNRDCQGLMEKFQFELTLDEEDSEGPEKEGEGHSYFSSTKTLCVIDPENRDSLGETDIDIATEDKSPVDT
Muscarinic acetylcholine receptor M3, sequence (P20309 whole entry): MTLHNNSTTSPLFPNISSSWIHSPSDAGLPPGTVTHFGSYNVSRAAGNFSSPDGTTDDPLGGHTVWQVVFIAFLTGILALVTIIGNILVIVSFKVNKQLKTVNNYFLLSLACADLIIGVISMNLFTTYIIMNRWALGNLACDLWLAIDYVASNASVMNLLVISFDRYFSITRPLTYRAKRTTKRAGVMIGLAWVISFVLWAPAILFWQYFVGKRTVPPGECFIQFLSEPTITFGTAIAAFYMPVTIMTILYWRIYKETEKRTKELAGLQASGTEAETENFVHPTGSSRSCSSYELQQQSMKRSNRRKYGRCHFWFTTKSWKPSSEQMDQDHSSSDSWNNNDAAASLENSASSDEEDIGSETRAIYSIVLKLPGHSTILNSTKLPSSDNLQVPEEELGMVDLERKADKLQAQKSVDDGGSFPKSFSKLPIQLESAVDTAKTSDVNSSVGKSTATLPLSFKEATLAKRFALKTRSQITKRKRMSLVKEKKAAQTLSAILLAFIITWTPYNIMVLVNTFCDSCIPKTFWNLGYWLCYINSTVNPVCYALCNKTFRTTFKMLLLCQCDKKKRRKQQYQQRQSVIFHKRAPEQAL
3',5'-cyclic-AMP phosphodiesterase 4A, sequence (P27815 whole entry, the tested form may be a part): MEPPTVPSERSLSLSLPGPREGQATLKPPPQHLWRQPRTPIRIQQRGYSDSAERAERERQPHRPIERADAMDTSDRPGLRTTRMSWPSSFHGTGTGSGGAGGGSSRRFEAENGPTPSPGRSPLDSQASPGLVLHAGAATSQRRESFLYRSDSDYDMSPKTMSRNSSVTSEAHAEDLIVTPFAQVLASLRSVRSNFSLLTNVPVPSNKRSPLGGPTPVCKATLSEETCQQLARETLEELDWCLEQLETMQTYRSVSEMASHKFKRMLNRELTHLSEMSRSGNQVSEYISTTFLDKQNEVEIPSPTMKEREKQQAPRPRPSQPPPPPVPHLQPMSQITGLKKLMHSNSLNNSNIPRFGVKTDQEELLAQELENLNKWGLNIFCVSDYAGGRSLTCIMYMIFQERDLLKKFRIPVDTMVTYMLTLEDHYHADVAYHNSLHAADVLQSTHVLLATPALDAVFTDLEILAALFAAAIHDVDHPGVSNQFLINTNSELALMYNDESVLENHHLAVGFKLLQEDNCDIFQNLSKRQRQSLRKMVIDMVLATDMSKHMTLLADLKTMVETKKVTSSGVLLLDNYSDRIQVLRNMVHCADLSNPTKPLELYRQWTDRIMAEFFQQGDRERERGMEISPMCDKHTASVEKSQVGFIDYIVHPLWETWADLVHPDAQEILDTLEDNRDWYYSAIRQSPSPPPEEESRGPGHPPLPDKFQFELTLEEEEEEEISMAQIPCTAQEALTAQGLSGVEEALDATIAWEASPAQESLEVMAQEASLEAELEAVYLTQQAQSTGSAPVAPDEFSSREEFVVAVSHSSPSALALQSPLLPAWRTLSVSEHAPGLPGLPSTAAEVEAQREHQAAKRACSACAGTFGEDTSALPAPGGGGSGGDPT
cGMP-inhibited 3',5'-cyclic phosphodiesterase 3A, sequence (Q14432 whole entry, the tested form may be a part): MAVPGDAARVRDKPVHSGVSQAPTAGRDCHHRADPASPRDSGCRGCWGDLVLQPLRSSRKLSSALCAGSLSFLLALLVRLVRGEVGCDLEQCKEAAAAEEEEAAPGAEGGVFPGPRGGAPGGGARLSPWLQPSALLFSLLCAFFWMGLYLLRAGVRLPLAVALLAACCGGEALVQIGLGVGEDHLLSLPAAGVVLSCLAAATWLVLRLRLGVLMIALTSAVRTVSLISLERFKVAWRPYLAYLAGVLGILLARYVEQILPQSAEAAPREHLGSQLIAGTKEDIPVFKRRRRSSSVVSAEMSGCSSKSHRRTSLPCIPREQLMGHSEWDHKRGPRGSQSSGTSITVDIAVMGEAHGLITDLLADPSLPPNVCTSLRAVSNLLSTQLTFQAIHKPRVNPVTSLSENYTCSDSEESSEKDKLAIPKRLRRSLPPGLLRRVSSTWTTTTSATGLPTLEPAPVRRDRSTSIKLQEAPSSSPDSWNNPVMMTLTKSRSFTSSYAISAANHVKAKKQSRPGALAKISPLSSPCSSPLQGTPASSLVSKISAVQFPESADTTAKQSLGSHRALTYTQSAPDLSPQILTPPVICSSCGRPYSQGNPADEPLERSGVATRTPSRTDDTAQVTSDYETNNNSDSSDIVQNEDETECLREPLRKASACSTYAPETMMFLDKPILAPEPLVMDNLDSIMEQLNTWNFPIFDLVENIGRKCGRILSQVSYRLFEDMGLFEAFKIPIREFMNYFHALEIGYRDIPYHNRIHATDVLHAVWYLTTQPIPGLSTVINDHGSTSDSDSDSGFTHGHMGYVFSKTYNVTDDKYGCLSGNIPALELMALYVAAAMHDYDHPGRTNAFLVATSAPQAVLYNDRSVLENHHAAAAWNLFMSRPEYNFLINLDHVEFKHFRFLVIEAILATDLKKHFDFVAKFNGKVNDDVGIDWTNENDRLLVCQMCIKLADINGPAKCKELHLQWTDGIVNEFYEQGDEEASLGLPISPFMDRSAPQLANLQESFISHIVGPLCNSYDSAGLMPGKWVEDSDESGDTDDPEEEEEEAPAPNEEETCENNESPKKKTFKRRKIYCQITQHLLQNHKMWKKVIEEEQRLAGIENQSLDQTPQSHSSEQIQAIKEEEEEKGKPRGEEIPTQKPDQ
3',5'-cyclic-AMP phosphodiesterase 4C, sequence (Q08493 whole entry): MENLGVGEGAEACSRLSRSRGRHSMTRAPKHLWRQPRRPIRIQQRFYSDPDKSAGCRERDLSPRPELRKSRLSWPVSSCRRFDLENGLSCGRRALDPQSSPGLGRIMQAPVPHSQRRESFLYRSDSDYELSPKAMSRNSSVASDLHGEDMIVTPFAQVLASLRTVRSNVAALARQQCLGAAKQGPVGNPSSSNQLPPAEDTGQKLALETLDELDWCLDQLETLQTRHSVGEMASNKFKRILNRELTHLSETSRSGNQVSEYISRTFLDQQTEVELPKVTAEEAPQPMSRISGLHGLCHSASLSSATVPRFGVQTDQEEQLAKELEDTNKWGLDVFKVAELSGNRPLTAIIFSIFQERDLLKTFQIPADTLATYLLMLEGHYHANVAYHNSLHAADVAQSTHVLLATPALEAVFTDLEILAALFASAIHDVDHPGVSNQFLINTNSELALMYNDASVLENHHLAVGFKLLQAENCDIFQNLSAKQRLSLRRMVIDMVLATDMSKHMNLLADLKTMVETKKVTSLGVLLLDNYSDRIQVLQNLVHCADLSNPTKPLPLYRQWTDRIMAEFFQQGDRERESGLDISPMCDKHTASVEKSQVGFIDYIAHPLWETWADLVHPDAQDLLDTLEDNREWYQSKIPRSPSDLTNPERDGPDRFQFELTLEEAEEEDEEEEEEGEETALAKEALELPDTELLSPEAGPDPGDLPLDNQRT

**Q.** With `Cc1ccc(O)c(C(=O)N[C@H]2CC[C@@H](NC(=O)c3cc(F)cnc3Oc3ccc(F)c(F)c3)CC2)c1` [UK-500001] as the molecule, how does the IC50 [1] read?
**A.** The IC50 was 0.38 nM.

**Q.** And the IC50 [2]?
**A.** The IC50 was 0.38 nM.

**Q.** What about the IC50 [3] of the same molecule?
**A.** The IC50 was 0.38 nM.

**Q.** Which IC50 [4] does the source give for `COc1ccc([C@@]2(c3cccc(OC)c3)c3cc(O)ccc3-c3ccc(C=O)c(C#Cc4ccc(O)cc4)c32)cc1` here?
**A.** The IC50 was 11 nM.

**Q.** With `COc1ccc(C(Cc2c(Cl)cncc2Cl)OC(=O)c2ccc(OC(F)F)c(OCC3CC3)c2)cc1OC` (stereo not drawn) as the molecule, how does the IC50 (Phosphodiesterase 4 [5]) read?
**A.** The IC50 was 0.2 nM.

**Q.** Which results are given for `COc1ccc(-c2nc3c(c(Nc4ccc(CC(=O)O)cc4)n2)SCCC3)cc1F`?
**A.** IC50 [6]: 5.5 nM; IC50 [7]: 440 nM

**Q.** With `COc1ccc(C2=NN(CCCCCc3ccccc3)C(=O)CC2)cc1OC` as the molecule, how does the IC50 [8] read?
**A.** Its IC50 is 0.9 nM.

**Q.** For `COC1=CC=C(C2=NN(CCCCCOc3ccc(C4=NNC(=O)CC4C)cc3)C(=O)CC2C)C2CC(C(F)(F)F)=NN12` (stereo not drawn), which IC50 [9] is on record?
**A.** The IC50 was 42 nM.

**Q.** And the IC50 [10]?
**A.** The IC50 was 360 nM.

**Q.** With `COc1cccc(Nc2c(C(N)=O)ccc3c(C)cc(S(=O)(=O)c4cccc(C(=O)Nc5ccc(C#CCCCNC[C@@H](O)c6ccc(O)c7[nH]c(=O)ccc67)cc5)c4)cc23)c1` as the molecule, how does the IC50 [11] read?
**A.** The IC50 was 5 nM.

**Q.** What does the source list for `NS(=O)(=O)c1cccc(-c2c(-c3ccccc3)nc(C(F)(F)F)nc2N2CCOCC2)c1`?
**A.** IC50 (Phosphodiesterase 4 [5]): 7 nM; EC50 [12]: 0.01 mg/kg

**Q.** For `O=C(O/C(=C\c1c(Cl)cncc1Cl)c1ccc(OC(F)F)c(OCC2CC2)c1)c1ccc(OC(F)F)c(OCC2CC2)c1`, which IC50 (Phosphodiesterase 4 [5]) is on record?
**A.** Its IC50 is 0.9 nM.

**Q.** For `CCOc1cc2c(cc1OC)C(c1ccc(C(=O)N(C(C)C)C(C)C)cc1)=N[C@@H]1CCN(C)C[C@H]21` [PUMAFENTRINE], which IC50 [13] is on record?
**A.** Its IC50 is 28 nM.

**Q.** What about the IC50 (Phosphodiesterase 4 [14]) of the same molecule?
**A.** The IC50 was 7 nM.

**Q.** For `COc1ccc(-c2ccc3nc(N)nc(N4CCN(C(=O)Nc5ccc(Cl)cc5)CC4)c3n2)cc1OC`, which IC50 (Phosphodiesterase 4 [15]) is on record?
**A.** The IC50 was 0.4 nM.

**Q.** Which IC50 [16] does the source give for `COc1ccc(-c2nc(C(=O)NCc3coc4ccccc34)c([C@@H](C)N)o2)c2ccc(C(F)(F)F)nc12` here?
**A.** The IC50 was 0.01 nM.

**Q.** With `O=C(C(=O)c1cn(Cc2ccc(F)cc2)c2ccc(O)cc12)c1c(Cl)cncc1Cl` as the molecule, how does the IC50 (Phosphodiesterase 4 [17]) read?
**A.** Its IC50 is 9.7 nM.

**Q.** What about the EC50 [18] of the same molecule?
**A.** The EC50 was 110 nM.

**Q.** Which IC50 [19] does the source give for `O=C(N[C@H]1CC[C@@H](C2C(=O)c3cc(F)cnc3N(C3CCSCC3)C2=O)CC1)c1cn2cc(F)ccc2n1` (stereo partly drawn) here?
**A.** Its IC50 is 0.126 nM.

**Q.** For `CC1CN(C(=O)CO/N=C/c2ccc(OC(F)F)c(OC3CCCC3)c2)CC(C)O1` (stereo not drawn), which IC50 [2] is on record?
**A.** The IC50 was 800 nM.

**Q.** For `CCOc1cc([C@H](CS(C)(=O)=O)N2C(=O)c3cccc(NC(=O)OCCOCCOCCOCCOCCOC)c3C2=O)ccc1OC`, which IC50 [20] is on record?
**A.** Its IC50 is 3 nM.

**Q.** And the IC50 [21]?
**A.** Its IC50 is 3 nM.

**Q.** With `CCOc1cc(C(CS(C)(=O)=O)N2C(=O)c3csc(NC(C)=O)c3C2=O)ccc1OC` (stereo not drawn) as the molecule, how does the IC50 [22] read?
**A.** Its IC50 is 26 nM.

**Q.** Which IC50 (Phosphodiesterase 4 [23]) does the source give for `O=C(O[C@@H](Cc1c(Cl)c[n+]([O-])cc1Cl)c1ccc(OC(F)F)c(OCC2CC2)c1)C1CN(C(=O)c2ccc(COc3cccc(CN(C(=O)O[C@H]4CN5CCC4CC5)c4ccccc4)c3)cc2)C1` here?
**A.** Its IC50 is 100 nM.

**Q.** And the IC50 [24]?
**A.** The IC50 was 100 nM.

**Q.** With `CCOC(=O)c1cnc2c(cnn2CC)c1NN=C(C)C` [ETAZOLATE] as the molecule, how does the IC50 [25] read?
**A.** Its IC50 is 390 nM.

**Q.** With `COc1ccc([C@H]2CNC(=O)[C@H](Cc3cccc(C)c3)C2)cc1OC1CCCC1` [HT-0712] as the molecule, how does the IC50 [25] read?
**A.** Its IC50 is 150 nM.

**Q.** For `COc1ccc(C2=NN(C3CCN(S(=O)(=O)c4ccccc4C)CC3)C(=O)C(C)(C)C2)cc1OC`, which pIC50 (Phosphodiesterase 4 [5]) is on record?
**A.** The pIC50 was 9.45.

**Q.** With `CCOc1ccc(-c2nc(-c3cccc(C(=O)O)n3)cs2)cc1OCC` [TETOMILAST] as the molecule, how does the IC50 (Phosphodiesterase 4 [5]) read?
**A.** The IC50 was 74 nM.

**Q.** For `COc1cc2c(cc1OC)[C@@H]1CN(C)CC[C@@H]1N=C2c1ccc(NC(C)=O)cc1` [BENAFENTRINE], which IC50 [26] is on record?
**A.** The IC50 was 1760 nM.

**Q.** And the IC50 [27]?
**A.** Its IC50 is 1740 nM.
